Results published in patent US11000033B2, “Ketone or oxime compound, and herbicide” (NISSAN CHEMICAL CORPORATION, priority 2014, dated 2021).

Tests used:
Assay type in all cases: in vivo
Scirpus juncoides = experiment: Test Example 1: herbicidal activity, application before weed generation in submerged conditions (symbol B); conditions: application herbicide amount 320 g/ha
Procedure, shortened: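 Scores run 0 to 5 by herbicidal ratio, with 5 meaning 90% or more and 0 meaning 5% or lower, read 3 weeks after treatment. Compound was applied as a diluted emulsion to the water surface of submerged alluvial-soil pots on the day weed seeds were sown.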

Setaria viridis [1] = experiment: Test Example 4: herbicidal effect by soil treatment (symbol G); conditions: application herbicide amount 320 g/ha
Procedure, shortened: (§1)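 Seeds were sown in sterilized diluvial soil, covered with about 1.5 cm of soil, and the soil surface was sprayed with a water-diluted emulsion of the compound at a predetermined rate. Plants grew in a greenhouse at 25° C. to 30° C.; effects were scored visually 3 weeks after application.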

Avena fatua = experiment: Test Example 4: herbicidal effect by soil treatment (symbol I); conditions: application herbicide amount 320 g/ha
Procedure, shortened: as §1

Alopecurus myosuroides [2] = experiment: Test Example 4: herbicidal effect by soil treatment (symbol J); conditions: application herbicide amount 320 g/ha
Procedure, shortened: as §1

Lolium multiflorum Lam. = experiment: Test Example 4: herbicidal effect by soil treatment (symbol K); conditions: application herbicide amount 320 g/ha
Procedure, shortened: as §1

Abutilon theophrasti = experiment: Test Example 4: herbicidal effect by soil treatment (symbol M); conditions: application herbicide amount 320 g/ha
Procedure, shortened: as §1

Amaranthus retroflexus [3] = experiment: Test Example 4: herbicidal effect by soil treatment (symbol N); conditions: application herbicide amount 320 g/ha
Procedure, shortened: as §1

Stellaria media = experiment: Test Example 4: herbicidal effect by soil treatment (symbol P); conditions: application herbicide amount 320 g/ha
Procedure, shortened: as §1

Galium spurium = experiment: Test Example 4: herbicidal effect by soil treatment (symbol Q); conditions: application herbicide amount 320 g/ha
Procedure, shortened: as §1

corn = experiment: Test Example 4: effect on crop by soil treatment (symbol c); conditions: application herbicide amount 320 g/ha
Procedure, shortened: (§2)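 The test used sterilized diluvial soil. Seed was set down in spots and overlaid with about 1.5 cm of soil before growth in a greenhouse kept at 25° C. to 30° C.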

soybean [4] = experiment: Test Example 4: effect on crop by soil treatment (symbol d); conditions: application herbicide amount 320 g/ha
Procedure, shortened: as §2

rice = experiment: Test Example 4: effect on crop by soil treatment (symbol b); conditions: application herbicide amount 320 g/ha
Procedure, shortened: as §2

wheat [5] = experiment: Test Example 4: effect on crop by soil treatment (symbol e); conditions: application herbicide amount 320 g/ha
Procedure, shortened: as §2

Digitaria ciliaris = experiment: Test Example 5: herbicidal effect by foliage application, plastic box (symbol F); conditions: 320 g/ha, 3 weeks after application
Procedure, shortened: (§3)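 Sowing in sterilized diluvial soil, 14 days' greenhouse growth at 25° C. to 30° C., then uniform small-sprayer foliar application of aqueous emulsion dilution; plants scored three weeks afterwards.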

Setaria viridis [6] = experiment: Test Example 5: herbicidal effect by foliage application, plastic box (symbol G); conditions: 320 g/ha, 3 weeks after application
Procedure, shortened: as §3

[7] = system: Echinochloa crus-galli var. crus-galli; experiment: Test Example 5: herbicidal effect by foliage application, plastic box (symbol H); conditions: 320 g/ha, 3 weeks after application
Procedure, shortened: as §3

Alopecurus myosuroides [8] = experiment: Test Example 5: herbicidal effect by foliage application, plastic box (symbol J); conditions: 320 g/ha, 3 weeks after application
Procedure, shortened: as §3

Amaranthus retroflexus [9] = experiment: Test Example 5: herbicidal effect by foliage application, plastic box (symbol N); conditions: 320 g/ha, 3 weeks after application
Procedure, shortened: as §3

soybean [10] = experiment: Test Example 5: effect on crop by foliage application, plastic box (symbol d); conditions: 320 g/ha, 3 weeks after application
Procedure, shortened: (§4)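 Crop seed is sown alongside grass and broadleaf weed species in spots in sterilized diluvial soil, then covered to a depth of about 1.5 cm. Plants grow in a greenhouse kept at 25° C. to 30° C.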

rice plant = experiment: Test Example 5: effect on crop by foliage application, plastic box (symbol b); conditions: 320 g/ha, 3 weeks after application
Procedure, shortened: as §4

wheat [11] = experiment: Test Example 5: effect on crop by foliage application, plastic box (symbol e); conditions: 320 g/ha, 3 weeks after application
Procedure, shortened: as §4

Row | Structure (SMILES) | Herbicidal effect grade, B: Scirpus juncoides (Scirpus juncoides) | G: Setaria viridis, herbicidal effect grade (Setaria viridis [1]) | I: Avena fatua, herbicidal effect grade (Avena fatua) | J: Alopecurus myosuroides, herbicidal effect grade (Alopecurus myosuroides [2]) | K: Lolium multiflorum Lam., herbicidal effect grade (Lolium multiflorum Lam.) | M: Abutilon theophrasti, herbicidal effect grade (Abutilon theophrasti) | N: Amaranthus retroflexus, herbicidal effect grade (Amaranthus retroflexus [3]) | P: Stellaria media, herbicidal effect grade (Stellaria media) | Q: Galium spurium, herbicidal effect grade (Galium spurium) | c: corn, effect on crop grade (corn) | d: soybean, effect on crop grade (soybean [4]) | b: directly sowed rice plant, effect on crop grade (rice) | e: wheat, effect on crop grade (wheat [5]) | F: Digitaria ciliaris, herbicidal effect (criteria of Test Example 1) (Digitaria ciliaris) | G: Setaria viridis, herbicidal effect (criteria of Test Example 1) (Setaria viridis [6]) | H: Echinochloa crus-galli var. crus-galli, herbicidal effect (criteria of Test Example 1) [7] | J: Alopecurus myosuroides, herbicidal effect (criteria of Test Example 1) (Alopecurus myosuroides [8]) | d: soybean, effect on crop (criteria of Test Example 1) (soybean [10]) | b: directly sowed rice plant, effect on crop (criteria of Test Example 1) (rice plant) | e: wheat, effect on crop (criteria of Test Example 1) (wheat [11]) | also measured
1 | CON=C(C)CC1CC(O)=C(c2c(C)cc(-c3ccc(OC(F)(F)F)cc3)cc2C)C1=O (mixture of isomers) [6-056] | 0 (Herbicidal ratio of 5% or lower (almost no effect)) | 2 (Herbicidal ratio of 20% or higher and lower than 40%) | 0 (Herbicidal ratio of 5% or lower (almost no effect)) | 0 (Herbicidal ratio of 5% or lower (almost no effect)) | 0 (Herbicidal ratio of 5% or lower (almost no effect)) | 0 (Herbicidal ratio of 5% or lower (almost no effect)) | 0 (Herbicidal ratio of 5% or lower (almost no effect)) | 0 (Herbicidal ratio of 5% or lower (almost no effect)) | 0 (Herbicidal ratio of 5% or lower (almost no effect)) | 0 (Herbicidal ratio of 5% or lower (almost no effect)) | 0 (Herbicidal ratio of 5% or lower (almost no effect)) | 1 (Herbicidal ratio of 5% or higher and lower than 20%) | 0 (Herbicidal ratio of 5% or lower (almost no effect)) | 5 (Herbicidal ratio of 90% or more (almost completely withered)) | 5 (Herbicidal ratio of 90% or more (almost completely withered)) | 4 (Herbicidal ratio of 70% or higher and lower than 90%) | 3 (Herbicidal ratio of 40% or higher and lower than 70%) | 0 (Herbicidal ratio of 5% or lower (almost no effect)) | 2 (Herbicidal ratio of 20% or higher and lower than 40%) | 0 (Herbicidal ratio of 5% or lower (almost no effect)) | N: Amaranthus retroflexus, herbicidal effect (criteria of Test Example 1) (Amaranthus retroflexus [9]): 0 (Herbicidal ratio of 5% or lower (almost no effect))
2 | CCc1cc(-c2ccc(Cl)cc2)cc(C)c1C1=C(OC(=O)N2CCOCC2)CC(CC(C)=NOC)C1=O (mixture of isomers) [6-064] | 0 (Herbicidal ratio of 5% or lower (almost no effect)) | 5 (Herbicidal ratio of 90% or more (almost completely withered)) | 0 (Herbicidal ratio of 5% or lower (almost no effect)) | 4 (Herbicidal ratio of 70% or higher and lower than 90%) | 0 (Herbicidal ratio of 5% or lower (almost no effect)) | 0 (Herbicidal ratio of 5% or lower (almost no effect)) | 0 (Herbicidal ratio of 5% or lower (almost no effect)) | 0 (Herbicidal ratio of 5% or lower (almost no effect)) | 0 (Herbicidal ratio of 5% or lower (almost no effect)) | 0 (Herbicidal ratio of 5% or lower (almost no effect)) | 0 (Herbicidal ratio of 5% or lower (almost no effect)) | 0 (Herbicidal ratio of 5% or lower (almost no effect)) | 0 (Herbicidal ratio of 5% or lower (almost no effect)) | 5 (Herbicidal ratio of 90% or more (almost completely withered)) | 5 (Herbicidal ratio of 90% or more (almost completely withered)) | 5 (Herbicidal ratio of 90% or more (almost completely withered)) | 3 (Herbicidal ratio of 40% or higher and lower than 70%) | 0 (Herbicidal ratio of 5% or lower (almost no effect)) | 5 (Herbicidal ratio of 90% or more (almost completely withered)) | 5 (Herbicidal ratio of 90% or more (almost completely withered)) | –
3 | CCc1cc(-c2ccc(Cl)cc2)cc(C)c1C1=C(O)CC(CC(C)=NOC)C1=O (centres unmarked) [6-066] | 3 (Herbicidal ratio of 40% or higher and lower than 70%) | 5 (Herbicidal ratio of 90% or more (almost completely withered)) | 5 (Herbicidal ratio of 90% or more (almost completely withered)) | 5 (Herbicidal ratio of 90% or more (almost completely withered)) | 5 (Herbicidal ratio of 90% or more (almost completely withered)) | 0 (Herbicidal ratio of 5% or lower (almost no effect)) | 2 (Herbicidal ratio of 20% or higher and lower than 40%) | 0 (Herbicidal ratio of 5% or lower (almost no effect)) | 0 (Herbicidal ratio of 5% or lower (almost no effect)) | 4 (Herbicidal ratio of 70% or higher and lower than 90%) | 0 (Herbicidal ratio of 5% or lower (almost no effect)) | 5 (Herbicidal ratio of 90% or more (almost completely withered)) | 4 (Herbicidal ratio of 70% or higher and lower than 90%) | 5 (Herbicidal ratio of 90% or more (almost completely withered)) | 5 (Herbicidal ratio of 90% or more (almost completely withered)) | 5 (Herbicidal ratio of 90% or more (almost completely withered)) | 5 (Herbicidal ratio of 90% or more (almost completely withered)) | 3 (Herbicidal ratio of 40% or higher and lower than 70%) | 5 (Herbicidal ratio of 90% or more (almost completely withered)) | 5 (Herbicidal ratio of 90% or more (almost completely withered)) | N: Amaranthus retroflexus, herbicidal effect (criteria of Test Example 1) (Amaranthus retroflexus [9]): 3 (Herbicidal ratio of 40% or higher and lower than 70%)
